Values belong to the substance of their own block, whether it stands above or below them.
What was measured:
[1] = assay type: physicochemical; settings: 30 mg/mL, CLSM and fast FLIM
Droplet microstructure = assay type: physicochemical; settings: CLSM and fast FLIM with SBD dye, 448 nm excitation
[2] = Encapsulation efficiency of guest fluorophores by droplets; assay type: physicochemical
[3] = Redox controlled droplet formation through LLPS; assay type: physicochemical

Substance: WCRY
droplet microstructure before oxidation ([1]; pH 7.5 (1 M NaOH), SBD dye): forms homogeneous droplets | droplet microstructure after oxidation by H2O2 ([1]; pH 7.5, 1 μL H2O2 (1M), 5 mins at room temperature): transform into the multiphasic droplets

Substance: YCGY
solubility in aqueous solution ([3]; aqueous solution, words only): very good solubility | state of the droplet emulsion after adding DTT ([3]; oxidised peptide, then DTT, 5 mins at room temperature, CLSM / bright field): clear solution | concentration at which the peptide still does not undergo LLPS ([3]; reduced (thiol) peptide, aqueous solution): 80000 µg/mL

Substance: YGYY
droplet microstructure (core-shell or homogeneous) (Droplet microstructure): show similar results with the R group

Substance: YRYY
droplet microstructure (core-shell or homogeneous) (Droplet microstructure): formed homogeneous droplets

Next, values leading:

droplet microstructure (core-shell or homogeneous) (Droplet microstructure): show similar results with the R group
Substance: WGWW

behaviour of droplets when the fluorophores were added, pH 7.5 ([2]; pH 7.5, fluorophores added): tend to aggregates | behaviour of droplets when the fluorophores were added, pH 9.0 ([2]; pH 9.0, fluorophores added): relatively stable
Substance: WYWW

From paper doi:10.1101/2024.07.07.602414v1 (bioRxiv, 2024)
